# “Also recorded” adds a separate entry of the source. Read-outs that look alike come from different tables or passages of the source.
# Experiments:
# Abca4−/−Rdh8−/− mice [1] = assay: Bright light-induced retinal degeneration in Abca4−/−Rdh8−/− mice, retinal histology and immunohistochemistry; type: in vivo, mouse; conditions: pretreatment before light 10,000 lux 30 min; 7-10 days after light exposure
# Description: Retinal histology and immunohistochemistry (IHC) was performed as previously described. Briefly, eye cups free of cornea, lens and vitreous body were fixed in 2% glutaraldehyde/4% paraformaldehyde and processed for Epon embedding. Sections 1 am thick were cut and stained with toluidine blue for histological examination under a light microscope. IHC analysis was performed on 12 am thick cryosections prepared from 4% paraformaldehyde-fixed eye cups. Collected cryosections were subjected to examination for rhodopsin, PNA and DAPI expression.
# Retinal immunohistochemistry (IHC) was carried out as previously described. Briefly, eyes were enucleated and eye cups were made to eliminate cornea, lens and vitreous body and fixed in 4% paraformaldehyde and processed for cryosectioning. 12 am thick cryosections were collected cryosections and subjected to examination for rhodopsin, peanut agglutinin lectin (PNA) and DAPI expression.
# Retinal immunohistochemistry (IHC) was performed as previously described. Briefly, eyes were enucleated and, after removal of the cornea, lens and vitreous body, eye cups were fixed in 4% paraformaldehyde and processed for cryosectioning. Twelve μm thick cryosections were cut, collected and examined for rhodopsin expression, peanut agglutinin lectin (PNA) for cone sheath and nuclear DAPI staining. […]
# [2] = test system: ROS generation in photoreceptors of Abca4−/−Rdh8−/− mice; assay: In vivo detection of ROS (DHE probe) in retinas of light-exposed Abca4−/−Rdh8−/− mice; parameters: species or system mouse; conditions: for ROS production in the ONL / photoreceptors (DHE signal): Example 1, pretreatment before light 10,000 lux 30 min, retinas 3 h after illumination; for ROS generation in photoreceptors (DHE signal): Example 3, DOX 10 mg/kg, GUB 2.0 mg/kg, SQ 0.5 mg/kg ip 30 min prior to light
# Description: The ROS probe, DHE, at a dose of 20 mg/kg body weight was administered to Abca4^−/−Rdh8^−/− mice via intraperitoneal injection 30 min prior to light exposure. Eye cups obtained after removing the cornea, lens and vitreous body from enucleated eye globes 3 h post light illumination were fixed in 4% paraformaldehyde. Cryosections were prepared from fixed eye cups and cut at 12 am thickness for microscopic assessment of ROS signal fluorescence in the retina.
# The ROS probe, DHE, at a dose of 20 mg/kg body weight in 25 μl of DMSO, was administered to Abca4^−/−Rdh8^−/− mice via intraperitoneal injection 1 h prior to light exposure. Eye cups obtained after removing the cornea, lens, and vitreous body from enucleated eye globes 3 h post light illumination were fixed in 4% paraformaldehyde. Cryosections were prepared from fixed eye cups and cut at 12-am thickness for microscopic assessment of ROS fluorescence in the retina with ImageJ software (National Institutes of Health).
# Abca4−/−Rdh8−/− mice [3] = conditions: mouse, in vivo
# ARPE19 cells [4] = assay: In vitro detection and quantification of intracellular ROS in ARPE19 cells (DCF-DA / DHE probes); type: cell-based, human; conditions: for intracellular ROS production: retinoid applied to cultured ARPE19 cells, ROS probe DCF-DA or DHE
# Description: ARPE19 cells were cultured in Dulbecco's Modified Eagle's Medium (DMEM) (low glucose) supplemented with 10% fetal bovine serum. The ROS probes, 2′,7′-dichlorofluorescein diacetate (DCF-DA, Sigma, St. Louis, Mo.) or dihydroethidium (DHE, Invitrogen Corporation, Carlsbad, Calif.) were added after indicated pretreatments and incubated at 37° C. for 10-min before thorough washing in PBS and the ROS signals were subsequently observed at the same exposure setting under an inverted fluorescence microscope (Leica DMI 6000 B). Fluorescence quantification was performed with Metamorph imaging software (Molecular Devices, Downington, Pa.). Thresholds corresponding to fluorescent signals were set from the images and average fluorescence intensities were recorded for statistical analysis.
# ARPE19 cells [5] = test system: ARPE19 cells
# Abca4−/−Rdh8−/− mice [6] = assay: Bright light-induced retinal degeneration in Abca4−/−Rdh8−/− mice, OCT imaging of retinal structure; type: in vivo, mouse; conditions: for retinal / photoreceptor morphology by OCT imaging: pretreatment before light 10,000 lux 30 min, OCT 7 days after light exposure
# Abca4−/−Rdh8−/− mice [7] = assay: Bright light-induced retinal degeneration in Abca4−/−Rdh8−/− mice, ERG retinal function; conditions: pretreatment before light 10,000 lux 30 min, ERG 7 days to 2 weeks after
# [8] = Quantification of selected drugs in mouse serum and eye by LC-MS; type: in vivo, C57BL/6J WT mice; conditions: for Eye ± SD / concentration at 30 min: 30 min after a single ip dose: DOX 10, GUB 2, SQ 0.5 mg per kilogram; for Eye ± SD: mice perfused with PBS; for concentration at 30 min: C57BL/6J, mouse, serum, intraperitoneal, read-out: Serum ± SD; for amount in eye compared with level in 0.1 mL of serum: eye volume taken as about 0.1 mL
# Description: C57BL/6J WT mice at 6 weeks of age (Jackson Laboratory) were treated with DOX, GUB, or SQ at a single dose of 10, 2, and 0.5 mg per kilogram, respectively. The compound was dissolved in 50% DMSO in PBS (137 mM NaCl, 2.7 mM KCl, 0.67 mM […]). Next, to precipitate excess proteins, 0.3 ml of methanol was added to both the eye homogenate and 0.1 ml of serum. Samples were vortexed for 30 s followed by centrifugation for 15 min at 16,000 g. Clear supernatants were collected and used directly for LC-MS analysis. 2HPO4/KH2PO4, pH 7.4) and administrated by intraperitoneal injection. Thirty minutes later the mice were anesthetized. Blood samples were collected using the technique of cardiac puncture and subsequently centrifuged (5 min, 16,000 g) to collect serum. Prior to harvesting eyes, mice were intracardially perfused with PBS to minimalize blood contamination. Eye balls were immediately homogenized in 0.1 ml of PBS. The homogenate and serum samples were spiked with 100 pmols of internal standard (IS) (parazosin—2-[4-(2-furoyl)piperazin-1-yl]-6,7-dimethoxyquinazolin-4-amine (Sigma Aldrich) or clenbuterol—(RS)-1-(4-Amino-3,5-dichlorophenyl)-2-(tert-butylamino)ethanol (Sigma Aldrich)) for DOX, GUB or SQ quantification, respectively.
# Mass spectrometry (MS) based detection and quantification of DOX, GUB, and SQ was performed with a L×Q linear ion trap mass spectrometer (Thermo Scientific) equipped with an electrospray ionization (ESI) interface and coupled to Agilent 1100 HPLC (Agilent Technologies). Separation of drugs and the internal standards was achieved on a reverse phase C18 Phenomenex HPLC column (250×4.60 mm; 5 μm) by a linear gradient of to 100% acetonitrile in water within 15 min at flow rate of 0.5 ml/min. All solvents contained 0.1% formic acid (v/v). The HPLC effluent was sprayed into the MS via an ESI probe operated in the positive ionization mode. Parameters of ionization and detection were tuned with synthetic standards for the drugs to achieve the highest possible sensitivity. Dox and parazosin (internal standard) were detected by selected reaction monitoring (SRM) using m/z 452.2→344.2 and 384.2→247.1 transitions whereas GUB, SQ and their corresponding IS, clenbuterol, was by fragmentation at m/z 231.1→214.0, 206.1→136.0, and 277.1→259.1, respectively. The elution times for DOX, GUB, and SQ were ˜12.8, 12.3, and 10.8 min, respectively. Both internal standards eluted at 12.0 min (FIG. 34). Calibration curves were calculated based on the linear relationship between ratios of SRM ion intensity peak area corresponding to the selected drug and the IS vs. molar ratios of the compounds in the range of 20-500 pmol (FIG. 34H).
# BALB/c mice [9] = assay: Light-induced retinal degeneration in BALB/c mice, SLO autofluorescence imaging; type: in vivo, mouse; conditions: DOX 10, GUB 2.0, SQ 0.5 mg/kg, 7 days after light
# Description: (§1) SLO (Heidelberg Engineering) was carried out for in vivo whole fundus imaging of mouse retinas. […] Numbers of autofluorescent spots were counted and subjected to statistical analyses as described below.
# These drugs were administered to 4-week-old BALB/c mice by intraperitoneal injection 30 min prior to white light exposure at 10,000 lux for 1 h. Retinal morphology was assessed 7 days after light exposure by OCT imaging and histological examination.
# BALB/c mice [10] = assay: Light-induced retinal degeneration in BALB/c mice, retinal morphology (OCT, histology, IHC); type: in vivo, mouse; conditions: ip pretreatment 30 min before 10,000 lux, 7 days after light
# Abca4−/−Rdh8−/− mice [11] = assay: Bright light-induced retinal degeneration in Abca4−/−Rdh8−/− mice, SLO autofluorescence imaging; type: in vivo, mouse; conditions: pretreatment before light 10,000 lux 30 min; SLO 8-9 days after light exposure
# Description: SLO (Heidelberg Engineering, Heidelberg, Germany) was carried out for whole fundus imaging of mouse retinas. Mice were anesthetized by intraperitoneal injection of anesthetic cocktail indicated above, which was followed by pupil dilation using 1% tropicamide prior to SLO imaging under autofluorescence mode.
# as §1
# SLO (Heidelberg Engineering) was carried out for whole fundus imaging of mouse retinas in vivo. Mice were anesthetized, and their pupils were dilated as described above. SLO images were then acquired in the autofluorescence mode.
# [12] = test system: visual pigment regeneration; assay: Effect on chromophore regeneration (ERG responses and 11-cis-retinal levels after bleaching); type: in vivo; conditions: SQ treatment
# Description: It is also worth noting that rhodopsin could be a central player in light-induced retinal degeneration, and that reduced amounts of rhodopsin protect the retina from light-induced degeneration. Therefore we examined the potential impact of the AC inhibitor SQ on chromophore regeneration given that AC is the central player in our newly identified GPCR signaling implicated in light-induced retinopathy (FIG. 1). […] Therefore, the possibility of an acute effect of pharmacological compounds on phototransduction could be ruled out.
# [13] = retinoid alone, at the doses examined
structure (smiles),measurement,setting,value
"NCCOB(c1ccccc1)c1ccccc1 [2-APB, 2-aminoethoxydiphenyl borate]","retinal histology / immunohistochemistry (rhodopsin, PNA, DAPI; ONL)",Abca4−/−Rdh8−/− mice [1],significantly preserved retinal morphology
same,ROS production in the ONL / photoreceptors (DHE signal),[2],reduced ROS production
same,retinal function by ERG (a-wave and b-wave amplitudes),Abca4−/−Rdh8−/− mice [3],protective effect
"CC1=C(/C=C/C(C)=C/C=C/C(C)=C/c2cc(/C=C/C=C(C)/C=C/C3=C(C)CCCC3(C)C)cc[n+]2CCO)C(C)(C)CCC1 [A2E, di-retinoid-pyridinium-ethanolamine]",intracellular ROS production,ARPE19 cells [4],did not induce overproduction of intracellular ROS
same,cell death,ARPE19 cells [5]; [13],"neither atROL, atRA nor A2E induced cell death"
"COc1cc(C(C)=O)ccc1O [APO, Apocynin]","retinal histology / immunohistochemistry (rhodopsin, PNA, DAPI; ONL)",Abca4−/−Rdh8−/− mice [1],nearly intact retinal morphology
same,ROS production in the ONL / photoreceptors (DHE signal),[2],substantially decreased ROS production
same,retinal / photoreceptor morphology by OCT imaging,Abca4−/−Rdh8−/− mice [6],well-preserved retinal morphology
same,atRAL-induced intracellular ROS generation,ARPE19 cells [4]; APO applied to ARPE19 cells together with atRAL,inhibited atRAL-induced intracellular ROS generation
same,ARPE19 cell survival,ARPE19 cells [5]; APO together with atRAL,improved ARPE19 cell survival
same,retinal function by ERG (a-wave and b-wave amplitudes),Abca4−/−Rdh8−/− mice [7],protective effect
N=C(N)N/N=C/c1c(Cl)cccc1Cl [Guanbenz],Eye ± SD,[8],13.1 ± 4.7 pmol/eye
same,concentration at 30 min,[8],70 ± 18 nM
same,amount in eye compared with level in 0.1 mL of serum,[8]; listed as GUB,comparable
same,"retinal histology / immunohistochemistry (rhodopsin, PNA, DAPI; ONL)",Abca4−/−Rdh8−/− mice [1],substantially preserved photoreceptor morphology
same,ROS generation in photoreceptors (DHE signal),[2],decreased
same,retinal / photoreceptor morphology by OCT imaging,Abca4−/−Rdh8−/− mice [6]; listed as GUB,significantly prevented; also recorded: dose-dependent fashion
same,half maximal effective (protective) dose,"Abca4−/−Rdh8−/− mice [6]; protection from bright light-induced degeneration, dose-response, FIG. 25A/B",0.3 mg/kg
same,autofluorescent spots by SLO,BALB/c mice [9],prevented
same,"retinal morphology / ONL (OCT, histology)",BALB/c mice [10],retinal morphology of drug-treated mice was maintained
same,retinal autofluorescence spots by SLO imaging,Abca4−/−Rdh8−/− mice [11],markedly less autofluorescence spots
Nc1ncnc2c1ncn2C1CCCO1 (stereo not shown) [SQ 22536],Eye ± SD,[8],5.6 ± 2.2 pmol/eye
same,concentration at 30 min,[8],193 ± 55 nM
same,amount in eye compared with level in 0.1 mL of serum,[8],5 times lower
same,"retinal histology / immunohistochemistry (rhodopsin, PNA, DAPI; ONL)",Abca4−/−Rdh8−/− mice [1],substantially preserved photoreceptor morphology
same,ROS generation in photoreceptors (DHE signal),[2],decreased
same,retinal / photoreceptor morphology by OCT imaging,Abca4−/−Rdh8−/− mice [6],protected retinas from light-induced degeneration in a dose-dependent manner
same,autofluorescent spots by SLO,BALB/c mice [9],prevented
same,"retinal morphology / ONL (OCT, histology)",BALB/c mice [10],retinal morphology of drug-treated mice was maintained
same,retinal autofluorescence spots by SLO imaging,Abca4−/−Rdh8−/− mice [11],dose-dependent effect
same,ERG responses and 11-cis-retinal levels after bleaching,[12],no significant changes
same,retinal function by ERG (a-wave and b-wave amplitudes),Abca4−/−Rdh8−/− mice [7]; listed as SQ,substantial preservation of the scotopic ERG response; also recorded: substantial preservation of this response
"CC1=C(/C=C/C(C)=C/C=C/C(C)=C/C(=O)O)C(C)(C)CCC1 [atRA, all-trans-retinoic acid]",intracellular ROS production,ARPE19 cells [4],did not induce overproduction of intracellular ROS
same,cell death,"ARPE19 cells [5]; human, 24 h","neither atROL, atRA nor A2E induced cell death"
"CC1=C(/C=C/C(C)=C/C=C/C(C)=C/C=O)C(C)(C)CCC1 [atRAL, all-trans-retinal]",intracellular ROS production,ARPE19 cells [4],significantly elevated intracellular ROS production
"CC1=C(/C=C/C(C)=C/C=C/C(C)=C/CO)C(C)(C)CCC1 [atROL, all-trans-retinol]",intracellular ROS production,ARPE19 cells [4],did not induce overproduction of intracellular ROS
same,cell death,ARPE19 cells [5]; [13],"neither atROL, atRA nor A2E induced cell death"
